According to US20070027143A1, “Novel substituted 2,3-benzodiazepine derivatives” (priority 2003, published 2007):
Structures can show the parent of a compound that is named as a salt. Marks after values point to notes of the source that are not given here. One block for each molecule: values may come before it.

Columns and labels:
CD1 mice [1] = experiment: Anticonvulsant activity, bemegride induced seizures; type: in vivo; conditions: Mus musculus; po.; read-out: Bemegride ED50
Protocol: (§1) The anti-seizure activity of some of the compounds of the present invention was measured using the electroshock test (J. Pharmacol. Exp. Ther. 106:319 (1952)) and the results are shown in Table 3. The spasmolytic activity of the compounds of the present invention was investigated by using e.g., pentetrazole (J. Pharmacol. Exp. Ther. 108:168 (1953)), strychnine (J. Pharmacol. Exp. Ther. 129:75 (1960)), bemegrid, nicotine, bicuculline, 4-aminopyridine and mercapto-propionic acid for inducing the clonic-tonic seizures and lethality. The investigated compounds were administered orally in three doses using 10 male CD1 mice/dose, usually 60 min before the induction of seizures.

CD1 mice [2] = experiment: Muscle relaxant activity, inclined screen test; type: in vivo; conditions: Mus musculus, ip
CD1 mice [3] = experiment: Anticonvulsant activity, pentetrazole induced seizures; type: in vivo; conditions: Mus musculus; po.; read-out: Pentetrazol ED50
Protocol: as §1

CD1 mice [4] = experiment: Anticonvulsant activity, 4-aminopyridine induced seizures; type: in vivo; conditions: Mus musculus; po.; read-out: 4-AP ED50
Protocol: as §1

CD1 mice [5] = experiment: Anticonvulsant activity, nicotine induced seizures; type: in vivo; conditions: Mus musculus; po.
Protocol: as §1

CD1 mice [6] = experiment: Muscle relaxant activity, rotarod test; type: in vivo; conditions: Mus musculus, ip
CD1 mice [7] = experiment: Anticonvulsant activity, maximal electroshock seizure (MES) test; type: in vivo; conditions: Mus musculus, po.
Protocol: as §1

AMPA/kainate receptors = experiment: Inhibition of AMPA induced whole-cell current in acutely isolated cerebellar Purkinje cells (patch clamp); type: cell-based; conditions: 5 μM AMPA, read-out: Inhibition of the ion-currents caused by 5 μM AMPA, IC50
Protocol: (§2) In the first model the spreading depression caused by glutamate agonists (i.e., AMPA or kainate) was studied, while in the second one the transmembrane ion-current induced by the activation of the AMPA/kainate receptors was measured directly.
The activity of the compounds of the present invention was studied on acutely isolated cerebellar Purkinje cells by measuring the whole-cell current induced by 5 μM AMPA according for example to the method described by Bleakman et al (Neuropharmacology 12:1689 (1996)).

CD1 mice [8] = experiment: Anticonvulsant activity, 3-mercapto-propionic acid induced seizures; type: in vivo; conditions: Mus musculus; po.; read-out: 3-MPA ED50
Protocol: as §1

AMPA receptors = experiment: Inhibition of AMPA induced spreading depression in isolated chicken retina; type: cell-based; conditions: AMPA (5 μM)
Protocol: as §2
Inhibition of AMPA Induced “Spreading Depression” in Isolated Chicken Retina—
The AMPA antagonistic effect of the compounds of formula (I) or (II) was studied in the in vitro “spreading depression” model (Sheardown Brain Res. 607:189 (1993)). The AMPA antagonists prolong the latency of the development of the “spreading depression” caused by AMPA (5 μM).

CD1 mice [9] = experiment: Anticonvulsant activity, bicuculline induced seizures; type: in vivo; conditions: Mus musculus; po.; read-out: Bicuculline ED50
Protocol: as §1

CD1 mice [10] = experiment: Anticonvulsant activity, strychnine induced seizures; type: in vivo; conditions: Mus musculus; po.; read-out: Strychnine ED50
Protocol: as §1

rats = experiment: Inhibition of focal ischemia, middle cerebral artery occlusion (MCAO) test; type: in vivo
Protocol: The focal anti-ischemic activity of the compounds of formula (I) or (II) of the present invention was measured by the “middle cerebral artery occlusion” (MCAO) test (Bartus Stroke 11:2265 (1994) and Sydserff et al, Brit. J. Pharmacol. 114:1631 (1995)). […] After a histological process (TTC staining) 24 h later, the infarcted area was determined by a computer assisted scanner program and was compared to the results obtained in a control group treated with the vehicle.

[11] = 1 h, 60 min before induction, read-out: MES (MES 60′) ED50

Compound: C[C@@H]1Cc2cc3c(cc2C(c2ccc(N)cc2)=NN1c1nncs1)OCO3 [Example 84, (R)-5-(4-Aminophenyl)-8-methyl-7-(1,3,4-thiadiazol-2-yl)-8,9-dihydro-7H-1,3-dioxolo-[4,5-h][2,3]benzodiazepine]
- ED50 (CD1 mice [1]): 16.7 mg/kg
- ED50 (CD1 mice [2]): 12.8 mg/kg
- ED50 (CD1 mice [3]): 17.1 mg/kg
- ED50 (CD1 mice [4]): 16.6 mg/kg
- ED50 (CD1 mice [5]): 77.2 mg/kg
- ED50 (CD1 mice [6]): 1.4 mg/kg
- melting point: 219 to 220 °C
- ED50 (CD1 mice [7]; 0.5 h, 30′, read-out: MES 30′ ED50): 10 to 15 mg/kg
- ED50 (CD1 mice [7]; [11]): 12.5 mg/kg
- IC50 (AMPA/kainate receptors): 90 nM
- ED50 (CD1 mice [8]): 6.8 mg/kg
- IC50 (AMPA receptors): 850 nM
- ED50 (CD1 mice [9]): 17 mg/kg
- ED50 (CD1 mice [10]): 18.2 mg/kg

Compound: CCc1nnc(N2N=C(c3ccc(N)cc3)c3cc4c(cc3C[C@H]2C)OCO4)s1 [Example 89, (R)-5-(4-Aminophenyl)-7-(5-ethyl-1,3,4-thiadiazol-2-yl)-8-methyl-8,9-dihydro-7H-1,3-dioxolo-[4,5-h][2,3]benzodiazepine]
- ED50 (CD1 mice [1]): 11.2 mg/kg
- ED50 (CD1 mice [2]): 4.3 mg/kg
- ED50 (CD1 mice [3]): 11.5 mg/kg
- ED50 (CD1 mice [4]): 14.3 mg/kg
- ED50 (CD1 mice [5]): 45.9 mg/kg
- ED50 (CD1 mice [6]): 1.7 mg/kg
- melting point: 142 to 144 °C
- ED50 (CD1 mice [7]; [11]): 10.5 mg/kg
- ED50 (CD1 mice [8]): > 50 mg/kg
- ED50 (CD1 mice [9]): 17.1 mg/kg
- ED50 (CD1 mice [10]): 15.7 mg/kg

Compound: Cc1nnc(N2N=C(c3ccc(N)cc3)c3cc4c(cc3C[C@H]2C)OCO4)o1 [Example 102, (R)-5-(4-Aminophenyl)-8-methyl-7-(5-methyl-1,3,4-oxadiazol-2-yl)-8,9-dihydro-7H-1,3-dioxolo-[4,5-h][2,3]benzodiazepine]
- ED50 (CD1 mice [1]): 27.9 mg/kg
- ED50 (CD1 mice [2]): 14.8 mg/kg
- ED50 (CD1 mice [3]): 35.7 mg/kg
- ED50 (CD1 mice [4]): 20.4 mg/kg
- ED50 (CD1 mice [5]): 31.7 mg/kg
- ED50 (CD1 mice [6]): 2.9 mg/kg
- melting point: 145 to 149 °C
- ED50 (CD1 mice [7]; [11]): 13.9 mg/kg
- ED50 (CD1 mice [8]): > 50 mg/kg
- ED50 (CD1 mice [9]): 25.8 mg/kg
- ED50 (CD1 mice [10]): 26.7 mg/kg

Compound: CC1=NN=C(c2ccc(N)cc2)c2cc3c(cc2C1)OCO3 [GYKI 52466 HCl, 5-(4-aminophenyl)-8-methyl-9H-1,3-dioxolo[4,5-h][2,3]benzodiazepine, reference compound]
- Decrease of the infracted area in % compared to that of the control (rats; 2 mg/kg iv. 6x in every 30 min, first treatment 120 min after occlusion): 39* %
- Decrease of the infracted area in % compared to that of the control (rats; 5 mg/kg iv. 6x in every 30 min, first treatment 30 min after occlusion): 34* %
- Decrease of the infracted area in % compared to that of the control (rats; 5 mg/kg iv. 6x in every 30 min, first treatment 120 min after occlusion): 47** %

Compound: CC1Cc2cc3c(cc2C(c2ccc([N+](=O)[O-])cc2)=NN1c1nnc(-c2ccccc2)s1)OCO3 (racemic) [Example 33, (±)-8-Methyl-5-(4-nitrophenyl)-7-(5-phenyl-1,3,4-thiadiazol-2-yl)-8,9-dihydro-7H-1,3-dioxolo[4,5-h][2,3]benzodiazepine]
- melting point: 210 to 212 °C

Compound: CC(=O)OCc1nnc(N2N=C(c3ccc(N)c(C)c3)c3cc4c(cc3C[C@H]2C)OCO4)s1 [Example 172, (R)-7-(5-Acetoxymethyl-1,3,4-thiadiazol-2-yl)-5-(4-amino-3-methylphenyl)-8-methyl-8,9-dihydro-7H-1,3-dioxolo[4,5-h][2,3]benzodiazepine]
- melting point: 204 to 206 °C

Compound: C/C=C/c1nnc(N2N=C(c3ccc([N+](=O)[O-])c(C)c3)c3cc4c(cc3C[C@H]2C)OCO4)s1 [Example 146, (R)-8-Methyl-5-(3-methyl-4-nitrophenyl)-7-{5-[1-(1E)-propen-1-yl]-1,3,4-thiadiazol-2-yl}-8,9-dihydro-7H-1,3-dioxolo[4,5-h][2,3]benzodiazepine]
- melting point: 232 to 237 °C

Compound: Nc1ccc(C2=NN(c3nccs3)CCc3cc4c(cc32)OCO4)cc1 [Example 74, 5-(4-Aminophenyl)-7-(2-thiazolyl)-8,9-dihydro-7H-1,3-dioxolo[4,5-h][2,3]benzodiazepine]
- melting point: 200 to 204 °C

Compound: CC1Cc2cc3c(cc2C(c2ccc(N)cc2)=NN1c1nc(-c2ccccc2)cs1)OCO3 (racemic) [Example 66, (±)-5-(4-Aminophenyl)-7-(4-phenyl-thiazol-2-yl)-8-methyl-8,9-dihydro-7H-1,3-dioxolo-[4,5-h][2,3]benzodiazepine]
- melting point: 221 to 223 °C

More lines, now with the values ahead:

- melting point: 135 to 138 °C
Compound: CC1Cc2cc3c(cc2C(c2ccc(N)cc2)=NN1C1=NN=C(NC2CC2)[SH]1C)OCO3 (racemic) [Example 92, (±)-5-(4-Aminophenyl)-7-(5-cyclopropylamino-methyl-1,3,4-thiadiazol-2-yl)-8-methyl-8,9-dihydro-7H-1,3-dioxolo[4,5-h][2,3]benzodiazepine]

- melting point: 251 to 252 °C
Compound: CCOC(=O)c1csc(N2N=C(c3ccc(N)cc3)c3cc4c(cc3CC2C)OCO4)n1 (racemic) [Example 67, (±)-5-(4-Aminophenyl)-7-(4-ethoxycarbonyl-thiazol-2-yl)-8-methyl-8,9-dihydro-7H-1,3-dioxolo-[4,5-h][2,3]benzodiazepine]

- melting point: 166 to 169 °C
Compound: CC1=NC(N2N=C(c3ccc(N)cc3)c3cc4c(cc3CC2C)OCO4)NN1 (racemic) [Example 114, (±)-5-(4-Aminophenyl)-8-methyl-7-(5-methyl-1H(2H)-1,2,4-triazol-3-yl)-8,9-dihydro-7H-1,3-dioxolo-[4,5-h][2,3]benzodiazepine]

- melting point: 218 to 220 °C
Compound: CC1Cc2cc3c(cc2C(c2ccc(N)cc2)=NN1C1=NC(=O)CS1)OCO3 (racemic) [Example 71, (±)-5-(4-Aminophenyl)-7-(4,5-dihydro-4-oxo-thiazol-2-yl)-8-methyl-8,9-dihydro-7H-1,3-dioxolo-[4,5-h][2,3]benzodiazepine]

- melting point: 166 to 167 °C
Compound: CC1Cc2cc3c(cc2C(c2ccc(N)cc2)=NN1C1=NCCO1)OCO3 (racemic) [Example 82, (±)-5-(4-Aminophenyl)-7-(4,5-dihydro-oxazol-2-yl)-8-methyl-8,9-dihydro-7H-1,3-dioxolo-[4,5-h][2,3]benzodiazepine]

- melting point: 187 to 190 °C
Compound: C[C@@H]1Cc2cc3c(cc2C(c2ccc(N)cc2)=NN1c1nnco1)OCO3 [Example 180, (R)-5-(4-Aminophenyl)-8-methyl-7-(1,3,4-oxadiazol-2-yl)-8,9-dihydro-7H-1,3-dioxolo[4,5-h][2,3]benzodiazepine]

- melting point: 213 °C
Compound: CC1Cc2cc3c(cc2C(c2ccc(N)cc2)=NN1c1nc(=O)n(C)s1)OCO3 (racemic) [Example 103, (±)-5-(4-Aminophenyl)-8-methyl-7-(2-methyl-3-oxo-2,3-dihydro-1,2,4-thiadiazol-5-yl)-8,9-dihydro-7H-1,3-dioxolo[4,5-h][2,3]benzodiazepine]

- melting point: 145 to 148 °C
Compound: CC1Cc2cc3c(cc2C(c2ccc(N)cc2)=NN1c1nnc(C2CC2)s1)OCO3 (racemic) [Example 87, (±)-5-(4-Aminophenyl)-7-(5-cyclopropyl-1,3,4-thiadiazol-2-yl)-8-methyl-8,9-dihydro-7H-1,3-dioxolo[4,5-h][2,3]benzodiazepine]

- melting point: 233 to 235 °C
Compound: CC1Cc2cc3c(cc2C(c2ccc(N)cc2)=NN1c1ncccn1)OCO3 (racemic) [Example 111, (±)-5-(4-Aminophenyl)-8-methyl-7-(2-pyrimidinyl)-8,9-dihydro-7H-1,3-dioxolo[4,5-h][2,3]benzodiazepine]
